The results in this text go back to patent publication US11820766B2, “Monoacylglycerol lipase modulators” (Janssen Pharmaceutica NV, priority 2018, dated 2023).

One experiment concerns the target T1, human MGL from HeLa cells (Homo sapiens, UniProt Q99685).
T1 construct: combining endogenously expressed MGL from HeLa cells with test compounds; endogenous in cells; host or cells: HeLa cells / cell homogenates
T1 sequence (Q99685 1-303): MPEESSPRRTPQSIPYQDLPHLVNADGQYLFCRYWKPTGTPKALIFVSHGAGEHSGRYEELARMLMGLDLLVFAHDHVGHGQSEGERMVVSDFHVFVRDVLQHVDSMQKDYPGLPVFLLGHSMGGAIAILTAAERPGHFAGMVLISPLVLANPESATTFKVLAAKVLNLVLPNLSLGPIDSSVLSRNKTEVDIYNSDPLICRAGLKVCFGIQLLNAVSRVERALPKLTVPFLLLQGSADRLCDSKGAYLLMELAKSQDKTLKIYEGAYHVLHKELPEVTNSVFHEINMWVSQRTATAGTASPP
Put plainly: In vitro MGL activity assay: [glycerol-1,3-3H]-oleyl glycerol cleavage by MGL from HeLa cells. To be noted: 300 nM [Glycerol-1,3-3H]-oleyl glycerol, one hour. Type of experiment: biochemical. The text has this: MGL is the predominant hydrolase in HeLa cells/cell homogenates.
For orientation: IC50 means the concentration that gives 50% inhibition. Read a low IC50 as inhibition by little substance. The compound `C[C@H]1c2nn(C)c(-c3cc(F)c(F)c(F)c3)c2CCN1C(=O)c1cnn(C)c1C1(C)CC1` [Example 334, [(7S)-2,7-Dimethyl-3-(3,4,5-trifluorophenyl)-5,7-dihydro-4H-pyrazolo[3,4-c]pyridin-6-yl]-[1-methyl-5-(1-methylcyclopropyl)pyrazol-4-yl]methanone] showed an IC50 of 2790 nM.

The compound `C[C@H]1c2nn(C)c(-c3cc(F)c(F)c(F)c3)c2CCN1C(=O)c1cnn(C)c1C1CC1F` (mixture of isomers) [Example 340, ((S)-2,7-Dimethyl-3-(3,4,5-trifluorophenyl)-2,4,5,7-tetrahydro-6H-pyrazolo[3,4-c]pyridin-6-yl)(trans-5-(2-fluorocyclopropyl)-1-methyl-1H-pyrazol-4-yl)methanone] gave an IC50 of 32.5 nM.

Compound `C[C@H]1c2nn(C)c(-c3cc(F)c(F)c(F)c3)c2CCN1C(=O)c1cccn2ncc(Br)c12` [Example 379, (3-Bromopyrazolo[1,5-a]pyridin-4-yl)-[(7S)-2,7-dimethyl-3-(3,4,5-trifluorophenyl)-5,7-dihydro-4H-pyrazolo[3,4-c]pyridin-6-yl]methanone] had a half-inhibitory concentration (IC50) of 45.5 nM.

With `C[C@H]1c2nn(C)c(-c3cc(F)c(F)c(F)c3)c2CCN1C(=O)c1cccc2c1ncn2C` [Example 366, [(7S)-2,7-Dimethyl-3-(3,4,5-trifluorophenyl)-5,7-dihydro-4H-pyrazolo[3,4-c]pyridin-6-yl]-(1-methylbenzimidazol-4-yl)methanone], inhibition was half-maximal at 51.9 nM (IC50).

`C[C@H]1c2nn(C)c(-c3cc(F)c(F)c(F)c3)c2CCN1C(=O)c1cnc2cccnn12` [Example 454, [(7S)-2,7-Dimethyl-3-(3,4,5-trifluorophenyl)-5,7-dihydro-4H-pyrazolo[3,4-c]pyridin-6-yl]-imidazo[1,2-b]pyridazin-3-yl-methanone] returned an IC50 of 24.9 nM.

In the case of `C[C@H]1c2nn(C)c(-c3cc(F)c(F)c(F)c3)c2CCN1C(=O)c1cccc2oc(=O)n(C)c12` [Example 585, 4-[(7S)-2,7-Dimethyl-3-(3,4,5-trifluorophenyl)-5,7-dihydro-4H-pyrazolo[3,4-c]pyridine-6-carbonyl]-3-methyl-1,3-benzoxazol-2-one], the IC50 was found to be 25.4 nM.

Turning to `Cc1nc2cccnn2c1C(=O)N1CCc2c(nn(C)c2-c2cc(F)c(F)c(F)c2)[C@@H]1C` [Example 455, [(7S)-2,7-Dimethyl-3-(3,4,5-trifluorophenyl)-5,7-dihydro-4H-pyrazolo[3,4-c]pyridin-6-yl]-(2-methylimidazo[1,2-b]pyridazin-3-yl)methanone], the IC50 was found to be 23.2 nM.

`C[C@H]1c2nn(C)c(-c3cc(F)c(F)c(F)c3)c2CCN1C(=O)c1c(F)cccc1-n1cccn1` [Example 603, [(7S)-2,7-Dimethyl-3-(3,4,5-trifluorophenyl)-5,7-dihydro-4H-pyrazolo[3,4-c]pyridin-6-yl]-(2-fluoro-6-pyrazol-1-yl-phenyl)methanone] had an IC50 of 114 nM.

The compound `COc1cncc(F)c1C(=O)N1CCc2c(nn(C)c2-c2cc(F)c(F)c(F)c2)[C@@H]1C` [Example 607, [(7S)-2,7-Dimethyl-3-(3,4,5-trifluorophenyl)-5,7-dihydro-4H-pyrazolo[3,4-c]pyridin-6-yl]-(3-fluoro-5-methoxy-4-pyridyl)methanone] showed an IC50 of 18.2 nM.

The experiment is the same for the next values; noted with them: 300 nM [Glycerol-1,3-3H]-oleyl glycerol, one hour incubation.
The compound `Cn1nc2c(c1-c1ccccc1)CCN(C(=O)c1cccc3ccnn13)C2` [Example 75, (2-Methyl-3-phenyl-2,4,5,7-tetrahydro-6H-pyrazolo[3,4-c]pyridin-6-yl)(pyrazolo[1,5-a]pyridin-7-yl)methanone] displayed a concentration for half-maximal inhibition (IC50) of 1800 nM.

Compound `Cn1nc2c(c1-c1ccccc1)CCN(C(=O)c1ccc3sccc3c1)C2` [Example 39, Benzo[b]thiophen-5-yl(2-methyl-3-phenyl-2,4,5,7-tetrahydro-6H-pyrazolo[3,4-c]pyridin-6-yl)methanone] gave an IC50 of 136 nM.

Regarding `C[C@H]1c2nn(C)c(-c3cccc(Cl)c3)c2CCN1C(=O)c1cc2ncccc2o1` [Example 129, (S)-(3-(3-Chlorophenyl)-2,7-dimethyl-2,4,5,7-tetrahydro-6H-pyrazolo[3,4-c]pyridin-6-yl)(furo[3,2-b]pyridin-2-yl)methanone], the 50% inhibitory concentration (IC50) was 47.2 nM.

Compound `COc1ccc(C(=O)N2CCc3c(nn(C)c3-c3cc(F)c(F)c(F)c3)[C@@H]2C)cc1-n1cnnc1` [Example 297, [(7S)-2,7-Dimethyl-3-(3,4,5-trifluorophenyl)-5,7-dihydro-4H-pyrazolo[3,4-c]pyridin-6-yl]-[4-methoxy-3-(1,2,4-triazol-4-yl)phenyl]methanone] came in with an IC50 of 923 nM.

`Cn1nc2c(c1-c1ccccc1)CCN(C(=O)c1cccc3[nH]ccc13)C2` [Example 42, (1H-Indol-4-yl)(2-methyl-3-phenyl-2,4,5,7-tetrahydro-6H-pyrazolo[3,4-c]pyridin-6-yl)methanone] displayed an IC50 of 23.6 nM.

`COc1nccc(C(=O)N2CCc3c(nn(C)c3-c3cc(F)c(F)c(F)c3)[C@@H]2C)c1F` [Example 315, [(7S)-2,7-Dimethyl-3-(3,4,5-trifluorophenyl)-5,7-dihydro-4H-pyrazolo[3,4-c]pyridin-6-yl]-(3-fluoro-2-methoxy-4-pyridyl)methanone] yielded an IC50 of 42.4 nM.

In turn, `C[C@@H]1c2nn(C(F)F)c(-c3cc(F)c(F)c(F)c3)c2CCN1C(=O)c1ccc2ncccc2c1` [Example 233, (R)-(2-(Difluoromethyl)-7-methyl-3-(3,4,5-trifluorophenyl)-2,4,5,7-tetrahydro-6H-pyrazolo[3,4-c]pyridin-6-yl)(quinolin-6-yl)methanone] gave a half-inhibitory concentration (IC50) of 550 nM.

Turning to `C[C@H]1c2nn(C)c(-c3cc(F)c(F)c(F)c3)c2CCN1C(=O)c1cccc2cc[nH]c12` [Example 205, (S)-(2,7-Dimethyl-3-(3,4,5-trifluorophenyl)-2,4,5,7-tetrahydro-6H-pyrazolo[3,4-c]pyridin-6-yl)(1H-indol-7-yl)methanone], half-maximal inhibition (IC50) required 33.3 nM.

Turning to `COc1cccnc1C(=O)N1CCc2c(nn(C)c2-c2cc(F)c(F)c(F)c2)[C@@H]1C` [Example 303, [(7S)-2,7-Dimethyl-3-(3,4,5-trifluorophenyl)-5,7-dihydro-4H-pyrazolo[3,4-c]pyridin-6-yl]-(3-methoxy-2-pyridyl)methanone], 113 nM corresponded to half-maximal inhibition (IC50).

In turn, `Cn1nc2c(c1-c1ccccc1)CCN(C(=O)c1nsc3ccccc13)C2` [Example 63, Benzo[d]isothiazol-3-yl(2-methyl-3-phenyl-2,4,5,7-tetrahydro-6H-pyrazolo[3,4-c]pyridin-6-yl)methanone] showed a concentration for half-maximal inhibition (IC50) of 49 nM.

Turning to `Cc1nc2ccc(C(=O)N3CCc4c(nn(C)c4-c4cc(Cl)cc(Cl)c4)[C@@H]3C)cc2o1` [Example 172, (S)-(3-(3,5-Dichlorophenyl)-2,7-dimethyl-2,4,5,7-tetrahydro-6H-pyrazolo[3,4-c]pyridin-6-yl)(2-methylbenzo[d]oxazol-6-yl)methanone], the midpoint of inhibition, the IC50, lay at 4.89 nM.

Turning to `COc1cc(C(=O)N2CCc3c(nn(C)c3-c3cc(F)c(F)c(F)c3)[C@@H]2C)nn1C` [Example 200, (S)-(2,7-Dimethyl-3-(3,4,5-trifluorophenyl)-2,4,5,7-tetrahydro-6H-pyrazolo[3,4-c]pyridin-6-yl)(5-methoxy-1-methyl-1H-pyrazol-3-yl)methanone], the half-maximal inhibitory concentration (IC50) worked out at 295 nM.

Compound `Cn1nc2c(c1-c1ccccc1)CCN(C(=O)c1cccc3scnc13)C2` [Example 61, Benzo[d]thiazol-4-yl(2-methyl-3-phenyl-2,4,5,7-tetrahydro-6H-pyrazolo[3,4-c]pyridin-6-yl)methanone] yielded a half-maximal inhibitory concentration (IC50) of 755 nM.

For the compound `C[C@H]1c2nn(C)c(-c3cc(F)c(F)c(F)c3)c2CCN1C(=O)c1cccc2cccnc12` [Example 236, (S)-(2,7-Dimethyl-3-(3,4,5-trifluorophenyl)-2,4,5,7-tetrahydro-6H-pyrazolo[3,4-c]pyridin-6-yl)(quinolin-8-yl)methanone], the concentration for half-maximal inhibition (IC50) stood at 5.79 nM.

In turn, `C[C@H]1c2nn(C)c(-c3cccc(Cl)c3)c2CCN1C(=O)c1ccc2ncccc2n1` [Example 131, (S)-(3-(3-Chlorophenyl)-2,7-dimethyl-2,4,5,7-tetrahydro-6H-pyrazolo[3,4-c]pyridin-6-yl)(1,5-naphthyridin-2-yl)methanone] registered a concentration for half-maximal inhibition (IC50) of 46.2 nM.

The compound `COc1c(Cl)cccc1C(=O)N1CCc2c(nn(C)c2-c2ccccc2)C1` [Example 14, (3-Chloro-2-methoxy-phenyl)-(2-methyl-3-phenyl-5,7-dihydro-4H-pyrazolo[3,4-c]pyridin-6-yl)methanone] showed an IC50 of 2590 nM.

The compound `C[C@H]1c2nn(C)c(-c3cc(F)c(F)c(F)c3)c2CCN1C(=O)c1cn(C)c2ncccc12` [Example 223, (S)-(2,7-Dimethyl-3-(3,4,5-trifluorophenyl)-2,4,5,7-tetrahydro-6H-pyrazolo[3,4-c]pyridin-6-yl)(1-methyl-1H-pyrrolo[2,3-b]pyridin-3-yl)methanone] registered an IC50 of 87.6 nM.

As to `C[C@H]1c2nn(C)c(-c3ccc(OC(F)F)c(F)c3)c2CCN1C(=O)c1ccc2nccnc2c1` [Example 189, (S)-(3-(4-(Difluoromethoxy)-3-fluorophenyl)-2,7-dimethyl-2,4,5,7-tetrahydro-6H-pyrazolo[3,4-c]pyridin-6-yl)(quinoxalin-6-yl)methanone], the concentration for half-maximal inhibition (IC50) was 102 nM.

`C[C@H]1c2nn(C)c(-c3cccc(Cl)c3)c2CCN1C(=O)c1cc(CO)ccn1` [Example 119, (S)-(3-(3-Chlorophenyl)-2,7-dimethyl-2,4,5,7-tetrahydro-6H-pyrazolo[3,4-c]pyridin-6-yl)(4-(hydroxymethyl)pyridin-2-yl)methanone] returned a concentration for half-maximal inhibition (IC50) of 398 nM.
